Experimental data published in ChEMBL document CHEMBL3046110, “Screening and evaluation of thiourea derivatives for their HIV capsid and human cyclophilin A inhibitory activity” (Med Chem Res, 2011).

Experiments:
[1] = system: Simian immunodeficiency virus; assay: Antiviral activity against Simian immunodeficiency virus infected CEM174 cells assessed as inhibition of virus-induced syncytium after 5 days by microscopic analysis; type: functional, organism-based; conditions: CEM174, 120 h
[2] = target: T1, Peptidyl-prolyl cis-trans isomerase A (Homo sapiens, UniProt P62937); assay: Inhibition of Homo sapiens (human) cyclophilin A PPIase activity expressed in Escherichia coli BL21(DE3) using Suc-AAPF-pNA as substrate measured after 6 secs for 20 secs by spectrophotometric analysis
[3] = Toxicity index, ratio of TC50 for human CEM174 cells to EC50 for Simian immunodeficiency virus; type: cell-based; conditions: read-out: TI
[4] = target: Structural capsid protein (Human immunodeficiency virus 1) (UniProt Q76129); assay: Inhibition of Human immunodeficiency virus 1 capsid protein expressed in Escherichia coli BL21(DE3) assessed as capsid assembly rate measured every 5 secs by spectrofluorometric analysis (reference value: 51.88 x 10^-5 OD/s)
[5] = Cytotoxicity against Homo sapiens (human) CEM174 by MTT assay; conditions: CEM174 cells, read-out: TC50 (the source's name)
[6] = target: T1, Peptidyl-prolyl cis-trans isomerase A; assay: Binding affinity to Homo sapiens (human) cyclophilin A expressed in Escherichia coli BL21(DE3) by fluorescence titration assay

Structural capsid protein (Human immunodeficiency virus 1), sequence (Q76129 as listed by the source): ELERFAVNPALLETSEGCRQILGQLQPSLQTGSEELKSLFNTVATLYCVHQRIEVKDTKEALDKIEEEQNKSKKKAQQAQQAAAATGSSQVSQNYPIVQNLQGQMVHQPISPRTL
T1 sequence (P62937 whole entry): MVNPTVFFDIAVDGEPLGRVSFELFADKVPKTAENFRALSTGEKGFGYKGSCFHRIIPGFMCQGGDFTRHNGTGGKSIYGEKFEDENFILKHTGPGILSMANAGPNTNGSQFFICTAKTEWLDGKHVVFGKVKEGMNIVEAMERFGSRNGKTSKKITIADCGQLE

Structure (SMILES)	EC50 [1] [µM]	IC50 ([2]; read-out: IC50) [nM]	selectivity ratio [3]	Activity [4] [×10⁻⁵ OD/s]	IC50 [2]	CC50 [5] [µM]	Kd [6] [µM]
O=C1OCc2ccc(NC(=S)Nc3cccc(F)c3)cc21	6.3	740	10				
Cc1ccc(NC(=S)Nc2ccc3c(c2)C(=O)OC3)cc1Cl	4.6		4	9.9			
Cc1cc(NS(=O)(=O)c2ccc(NC(=S)Nc3ccccc3C)cc2)no1	6.2		8				
Cc1cc(NS(=O)(=O)c2ccc(NC(=S)Nc3cccc(Br)c3)cc2)no1	0.9		66	15.8			
Cc1cccc(NC(=S)Nc2ccc3c(c2)C(=O)OC3)c1	11.6		1	32.7	Not Active		
Cc1cc(NS(=O)(=O)c2ccc(NC(=S)Nc3cccc(Cl)c3)cc2)no1	1		92	7.97			
CCN(CC)c1nc(C)c([N+](=O)[O-])c(NC(=S)Nc2cccc(Cl)c2)n1	3.7		8.6	21.2		31.5	
Cc1cc(NS(=O)(=O)c2ccc(NC(=S)Nc3ccc(Cl)cc3)cc2)no1	4.1		9	14.7			
O=S(=O)(Nc1nccs1)c1ccc(NC(=S)Nc2ccc(Cl)cc2)cc1	0.7		3				
CCN(CC)c1nc(C)c([N+](=O)[O-])c(NC(=S)Nc2ccc(C)c(Cl)c2)n1	6.3	740	> 14.1			> 100	73.3
Cc1ccc(NS(=O)(=O)c2ccc(NC(=S)Nc3ccc(Cl)cc3)cc2)cc1	4.1		19	13.3		77.5	
COc1ccc(NC(=S)Nc2ccc3c(c2)C(=O)OC3)cc1	9.7	920	20				
CCN(CC)c1nc(C)c([N+](=O)[O-])c(NC(=S)Nc2cccc(F)c2)n1	3.8		> 26.3	20.7		> 100	
O=C1OCc2ccc(NC(=S)Nc3ccccc3)cc21	1.3		28	25.5		36.3	
CCN(CC)c1nc(C)c([N+](=O)[O-])c(NC(=S)Nc2ccc(Cl)cc2)n1	12		> 8.33	48.9		> 100	
Cc1ccc(NC(=O)NCCSCc2ccc(CN(C)C)o2)cc1Cl				26.5			
Cc1cc(NS(=O)(=O)c2ccc(NC(=S)Nc3cccc(F)c3)cc2)no1	11.6	880	8	38.5			
COc1ccc(NC(=S)Nc2ccc(S(=O)(=O)Nc3cc(C)on3)cc2)cc1	1.5		27	20.2			
CCN(CC)c1nc(C)cc(NC(=S)Nc2cccc(Br)c2)n1	5.5		> 1.5		Not Active	8.4	200
Cc1cc(NS(=O)(=O)c2ccc(NC(=S)Nc3ccc(C)c(Cl)c3)cc2)no1	0.6		127	18.4			
CCN(CC)c1nc(C)c([N+](=O)[O-])c(NC(=S)Nc2cccc(Br)c2)n1	7.4	810	3.5			26.2	79.3
